Assay results reported in patent publication US20070128217A1 (priority 2003, published 2007).

Key:
[1] = test system: antibodies in sera from SARS patients (sera 1a, 1b, 2, 6, 37, 62, London, SARS-yellow, SARS-green); format: binding, human; parameters: Binding of serum 6 to linear peptides of protein X1 of SARS-CoV Urbani / Binding of serum 37 to linear peptides of protein X1 of SARS-CoV Urbani / Binding of serum 6 to looped/cyclic peptide (PEPSCAN-ELISA) / Binding of serum 37 to looped/cyclic peptide (PEPSCAN-ELISA) / Binding of serum 37 to looped/cyclic peptides of protein X1 of SARS-CoV Urbani / Binding of serum 6 to linear peptides of protein X2 / Binding of serum 37 to linear peptides of protein X2 / Binding of serum 37 to looped/cyclic peptides of protein X2 of SARS-CoV Urbani / Binding of serum 6 to linear peptides of protein M of SARS-CoV Urbani / Binding of serum 37 to linear peptides of protein M of SARS-CoV Urbani / Binding of serum 6 to looped/cyclic peptides of protein M of SARS-CoV Urbani / Binding of serum 37 to looped/cyclic peptides of protein M of SARS-CoV Urbani / Binding of serum 6 to linear peptides of protein X3 of SARS-CoV Urbani / Binding of serum 37 to linear peptides of protein X3 of SARS-CoV Urbani / Binding of serum 37 to looped/cyclic peptides of protein X3 of SARS-CoV Urbani / Binding of serum 6 to linear peptides of protein X4 of SARS-CoV Urbani / Binding of serum 37 to linear peptides of protein X4 of SARS-CoV Urbani / Binding of serum 37 to looped/cyclic peptides of protein X4 of SARS-CoV Urbani / Binding of serum 6 to linear peptides of protein X5 of SARS-CoV Urbani / Binding of serum 37 to linear peptides of protein X5 of SARS-CoV Urbani / Binding of serum 37 to looped/cyclic peptides of protein X5 of SARS-CoV Urbani / Binding of serum 6 to linear peptides of protein N of SARS-CoV Urbani / Binding of serum 37 to linear peptides of protein N of SARS-CoV Urbani / Binding of serum 6 to linear peptide (PEPSCAN-ELISA) / Binding of serum 1a to looped/cyclic peptides of protein N of SARS-CoV Urbani / Binding of serum 1b to looped/cyclic peptides of protein N of SARS-CoV Urbani / Binding of serum 2 to looped/cyclic peptides of protein N of SARS-CoV Urbani / Binding of serum 6 to looped/cyclic peptides of protein N of SARS-CoV Urbani / Binding of serum 37 to looped/cyclic peptides of protein N of SARS-CoV Urbani / Binding of serum 62 to looped/cyclic peptides of protein N of SARS-CoV Urbani / Binding of serum London to looped/cyclic peptides of protein N of SARS-CoV Urbani / Binding of serum SARS-green to looped/cyclic peptides of protein N of SARS-CoV Urbani: unit not given here
[2] = test system: control sera (pooled serum of ten healthy LUMC hospital workers; commercial negative donor pooled serum from the Dutch bloodbank); format: binding, human; parameters: Binding of Control serum LUMC to linear peptides / Binding of Control serum Blood-bank to linear peptides / Binding of Control serum LUMC to looped peptides / Binding of Control Serum Blood-Bank to Looped peptides / Binding of Control serum LUMC to linear peptides of the protein M of SARS-CoV Urbani / Binding of Control serum Blood-bank to linear peptides of the protein M of SARS-CoV Urbani / Binding of Control serum LUMC to looped peptides of the protein M of SARS-CoV Urbani / Binding of Control Serum Blood-Bank to Looped peptides of the protein M of SARS-CoV Urbani: unit not given here
[3] = test system: rabbit serum obtained by immunizing a rabbit with the SARS-CoV strain Frankfurt 1; format: binding; parameters: Binding of a rabbit serum to linear peptides / Binding of a rabbit serum to looped peptides / Rabbit serum linear peptides / Rabbit serum looped peptides / Binding of a rabbit serum to linear peptides of protein N of SARS-CoV Urbani (Rabbit serum linear peptides) / Binding of a rabbit serum to looped/cyclic peptides of protein N of SARS-CoV Urbani (Rabbit serum looped peptides): unit not given here
[4] = test system: recombinant human anti-SARS-CoV antibody 03-018; format: binding; parameters: Binding of antibody 03-018 to linear peptides of the N protein of SARS-CoV Urbani / Binding of antibody 03-018 to looped/cyclic peptides of the N protein of SARS-CoV Urbani: unit not given here

Sequence | Binding of serum 1a to linear peptides of protein N of SARS-CoV Urbani [1] | Binding of serum 1a to looped/cyclic peptides of protein N of SARS-CoV Urbani [1] | Binding of serum 1b to linear peptides of protein N of SARS-CoV Urbani [1] | Binding of serum 1b to looped/cyclic peptides of protein N of SARS-CoV Urbani [1] | Binding of serum 2 to linear peptides of protein N of SARS-CoV Urbani [1] | Binding of serum 2 to looped/cyclic peptides of protein N of SARS-CoV Urbani [1] | Binding of serum 6 to linear peptides of protein N of SARS-CoV Urbani [1] | Binding of serum 6 to looped/cyclic peptides of protein N of SARS-CoV Urbani [1] | Binding of serum 37 to linear peptides of protein N of SARS-CoV Urbani [1] | Binding of serum 37 to looped/cyclic peptides of protein N of SARS-CoV Urbani [1] | Binding of serum 62 to linear peptides of protein N of SARS-CoV Urbani [1] | Binding of serum 62 to looped/cyclic peptides of protein N of SARS-CoV Urbani [1] | Binding of serum London to linear peptides of protein N of SARS-CoV Urbani [1] | Binding of serum London to looped/cyclic peptides of protein N of SARS-CoV Urbani [1] | Binding of serum SARS-green to linear peptides of protein N of SARS-CoV Urbani [1] | Binding of serum SARS-green to looped/cyclic peptides of protein N of SARS-CoV Urbani [1] | Binding of serum SARS-yellow to linear peptides of protein N of SARS-CoV Urbani [1] | Binding of serum SARS-yellow to looped/cyclic peptides of protein N of SARS-CoV Urbani [1] | Binding of a rabbit serum to linear peptides of protein N of SARS-CoV Urbani (Rabbit serum linear peptides) [3] | Binding of a rabbit serum to looped/cyclic peptides of protein N of SARS-CoV Urbani (Rabbit serum looped peptides) [3] | further results
KEGIVWVATEGALNT | 0.2 | 0.3 | 0.1 | 0.2 | 0.2 | 0.4 | 0.2 | 0.2 | 0.7 | 0.6 | 0.6 | 0.5 | 0.4 | 0.4 | 0.5 | 0.3 | 0.7 | 0.5 | 0.1 | 0.4 | Binding of Control Serum Blood-Bank to Looped peptides [2]: 0.6; Binding of Control serum Blood-bank to linear peptides [2]: 0.7; Binding of Control serum LUMC to linear peptides [2]: 0.6; Binding of Control serum LUMC to looped peptides [2]: 0.7; Binding of antibody 03-018 to linear peptides of the N protein of SARS-CoV Urbani [4]: 0.1; Binding of antibody 03-018 to looped/cyclic peptides of the N protein of SARS-CoV Urbani [4]: 0.2
KKTDEAQPLPQRQKK | 0.2 | 0.2 | 0.1 | 0.1 | 0.3 | 0.1 | 0.4 | 0.0 | 0.7 | 0.4 | 0.6 | 0.2 | 1.7 | 0.2 | 0.2 | 0.0 | 1.1 | 0.0 | 0.2 | 0.0 | Control Serum Blood-Bank Looped peptides [2]: 0.4; Control serum Blood-bank linear peptides [2]: 0.7; Control serum LUMC linear peptides [2]: 0.7; Control serum LUMC looped peptides [2]: 0.3; Binding of antibody 03-018 to linear peptides of the N protein of SARS-CoV Urbani [4]: 0.1; Binding of antibody 03-018 to looped/cyclic peptides of the N protein of SARS-CoV Urbani [4]: 0.2
YRRATRRVRGGDGKM | 0.3 | 0.2 | 0.1 | 0.1 | 0.3 | 0.2 | 0.3 | 0.1 | 0.8 | 0.4 | 0.7 | 0.3 | 0.5 | 0.3 | 0.4 | 0.2 | 0.6 | 0.1 | 0.2 | 0.0 | Binding of Control Serum Blood-Bank to Looped peptides [2]: 0.4; Binding of Control serum Blood-bank to linear peptides [2]: 0.8; Binding of Control serum LUMC to linear peptides [2]: 0.7; Binding of Control serum LUMC to looped peptides [2]: 0.3; Binding of antibody 03-018 to linear peptides of the N protein of SARS-CoV Urbani [4]: 0.1; Binding of antibody 03-018 to looped/cyclic peptides of the N protein of SARS-CoV Urbani [4]: 0.2
EVTPSGTWLTYHGAI | 0.2 | 0.4 | 0.1 | 0.3 | 0.1 | 0.5 | 0.2 | 0.3 | 0.7 | 0.8 | 0.5 | 0.9 | 0.4 | 0.5 | 0.1 | 0.7 | 0.5 | 0.4 | 0.1 | 0.3 | Control Serum Blood-Bank Looped peptides [2]: 0.8; Control serum Blood-bank linear peptides [2]: 0.7; Control serum LUMC linear peptides [2]: 0.6; Control serum LUMC looped peptides [2]: 0.7; Binding of antibody 03-018 to linear peptides of the N protein of SARS-CoV Urbani [4]: 0.1; Binding of antibody 03-018 to looped/cyclic peptides of the N protein of SARS-CoV Urbani [4]: 0.2
